The values below come from PubChem BioAssay (NCI).

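Following 48 hours of exposure in 96-well plates, responses at five concentrations were used to interpolate endpoints linearly. GI50 marks 50% less growth. TGI: concentration producing complete growth inhibition.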

Test systems include A549 NSCLC; HCT-15 colon; KM12 colon; NCI-H23 lung; NCI-H522 lung; SF-539 CNS; SK-OV-3 ovarian; SN12C renal; SNB-19 CNS; SW-620 colon.
Assay in all cases: growth of human tumour cells (NCI), 48 h

For `C=C1CCC2C3(C)COC(c4ccccc4Br)OC3CCC2(C)C1C/C=C1/C(=O)OCC1OC(C)=O` (stereo not given), the GI50 in the experiment on A549 NSCLC was 2.06 µM; in the experiment with HCT-15 colon, 0.73 µM; in the experiment on KM12 colon, 1.55 µM; with NCI-H23 lung, 1.59 µM; in the experiment on NCI-H522 lung, 0.604 µM; with SF-539 CNS, 1.53 µM. Further, the GI50 is 2.85 µM in the experiment on SK-OV-3 ovarian, 1.36 µM in the experiment with SN12C renal, 2.25 µM in the experiment with SNB-19 CNS and 0.402 µM in the experiment on SW-620 colon. Moreover, the TGI in the experiment with A549 NSCLC turned out to be 5.26 µM; in the experiment with HCT-15 colon, 2.25 µM; in the experiment on KM12 colon, 3.12 µM; in the experiment on NCI-H23 lung it was 3.17 µM; in the experiment with NCI-H522 lung it was 2.03 µM; in the experiment with SF-539 CNS, 2.86 µM. The TGI in the experiment with SK-OV-3 ovarian worked out at 6.78 µM; with SN12C renal, 3.28 µM; with SNB-19 CNS, 5.85 µM; with SW-620 colon, 1.3 µM.
Regarding `Nc1n[nH]c2ccc([C@@H]3Nc4ccc5[nH]ncc5c4[C@H]4C5C=CC(C5)[C@@H]34)cc12` (stereo not given in full), the GI50 in the experiment with A549 NSCLC is 0.444 µM; in the experiment with HCT-15 colon, 0.316 µM; in the experiment on KM12 colon it was 0.39 µM; in the experiment on NCI-H23 lung it was 0.446 µM; in the experiment with NCI-H522 lung it was 0.173 µM; with SF-539 CNS it was 0.271 µM. Also, the GI50 was 1.03 µM in the experiment with SK-OV-3 ovarian, 0.52 µM in the experiment on SN12C renal, 0.59 µM with SNB-19 CNS and 0.367 µM in the experiment on SW-620 colon. Further, the TGI in the experiment on A549 NSCLC was above 85.2 µM; with HCT-15 colon, 13.5 µM; in the experiment on KM12 colon, 11.4 µM; with NCI-H23 lung, 14 µM; with NCI-H522 lung, 12.7 µM; with SF-539 CNS, 1.1 µM. Further, the TGI with SK-OV-3 ovarian was 42.8 µM; with SN12C renal, 28.2 µM; with SNB-19 CNS it was 61.3 µM; with SW-620 colon, 40.4 µM.
For the compound `O=C(CN1CCN(c2ccccc2)CC1)N1CCN(c2nnc(-c3ccc(Cl)cc3)c(-c3ccc(Cl)cc3)n2)CC1`, the GI50 in the experiment with A549 NSCLC was 9.86 µM; in the experiment with HCT-15 colon, 6.35 µM; with KM12 colon, 5.4 µM; in the experiment with NCI-H23 lung, 23.4 µM; with NCI-H522 lung, 10.7 µM; in the experiment with SF-539 CNS, 5.91 µM. Further, the GI50 in the experiment on SK-OV-3 ovarian was above 100 µM; with SN12C renal, 13 µM; in the experiment on SNB-19 CNS, 37.2 µM; in the experiment on SW-620 colon, 16.1 µM. Besides, the TGI is above 100 µM in the experiment on A549 NSCLC; above 100 µM in the experiment on HCT-15 colon; above 100 µM with KM12 colon; above 100 µM in the experiment on NCI-H23 lung; 66.6 µM in the experiment on NCI-H522 lung; above 100 µM with SF-539 CNS. Also, the TGI in the experiment with SK-OV-3 ovarian, in the experiment with SN12C renal, in the experiment with SNB-19 CNS and in the experiment on SW-620 colon was above 100 µM in each case.
Regarding `Nc1ccc(-c2ccc(N)cc2I)c(I)c1`, the GI50 was 29.9 µM with A549 NSCLC; 13.7 µM with HCT-15 colon; 14.5 µM in the experiment with KM12 colon; 17.8 µM in the experiment on NCI-H23 lung; 16.4 µM in the experiment with NCI-H522 lung; 14.5 µM with SF-539 CNS. The GI50 was 17 µM with SK-OV-3 ovarian, 19.7 µM with SN12C renal, 19 µM in the experiment on SNB-19 CNS and 19.4 µM with SW-620 colon. The TGI in the experiment on A549 NSCLC was above 100 µM; in the experiment on HCT-15 colon, 34.1 µM; in the experiment on KM12 colon, 36.5 µM; with NCI-H23 lung, 43.1 µM; in the experiment with NCI-H522 lung, 36.7 µM; with SF-539 CNS, 32.2 µM. In addition, the TGI stood at 44.4 µM in the experiment with SK-OV-3 ovarian, 55.8 µM in the experiment with SN12C renal, 77.3 µM in the experiment on SNB-19 CNS and 81.7 µM in the experiment with SW-620 colon.
With `COC(=O)C(F)C(Br)C(=O)OC` (stereo not given), the TGI with A549 NSCLC came out at 39.1 µM; in the experiment with HCT-15 colon, 3.84 µM; in the experiment with KM12 colon, 50.6 µM; with NCI-H23 lung, 13.5 µM; with NCI-H522 lung, 3.94 µM; in the experiment on SF-539 CNS, 20.4 µM. The TGI is 34.6 µM with SK-OV-3 ovarian, 30.9 µM in the experiment on SN12C renal, above 79.3 µM with SNB-19 CNS and 4.56 µM with SW-620 colon.
Take `CS(=O)(=O)Nc1ccc(N=Cc2c(O)[nH]c3ccccc23)cc1`: the GI50 with A549 NSCLC was above 25 µM; in the experiment with HCT-15 colon it was above 25 µM; in the experiment with KM12 colon, 1.2 µM; in the experiment on NCI-H23 lung, above 25 µM; with NCI-H522 lung it was above 25 µM; in the experiment with SF-539 CNS, above 25 µM. The GI50 in the experiment with SK-OV-3 ovarian, in the experiment with SN12C renal, in the experiment on SNB-19 CNS and in the experiment with SW-620 colon was above 25 µM each time. Further, the TGI in the experiment on A549 NSCLC, with HCT-15 colon, in the experiment on KM12 colon, in the experiment on NCI-H23 lung, in the experiment on NCI-H522 lung and in the experiment with SF-539 CNS was above 25 µM in each case. For the same compound, the TGI with SK-OV-3 ovarian, in the experiment on SN12C renal, in the experiment on SNB-19 CNS and in the experiment with SW-620 colon was above 25 µM in each case.
Consider `Cc1cn2c(/C=N/Nc3ccccn3)c(-c3ccc(Cl)c([N+](=O)[O-])c3)nc2s1`, for which the GI50 in the experiment on A549 NSCLC was 8.7 µM; in the experiment on HCT-15 colon, 16 µM; in the experiment on KM12 colon, 23.1 µM; with NCI-H23 lung, 10.9 µM; in the experiment on NCI-H522 lung it was 7.35 µM; in the experiment on SF-539 CNS it was 1.12 µM. Moreover, the GI50 in the experiment on SK-OV-3 ovarian was 9.95 µM; in the experiment with SN12C renal it was 14.3 µM; in the experiment with SNB-19 CNS, 12.4 µM; in the experiment with SW-620 colon, 44.1 µM. Further, the TGI with A549 NSCLC is 21.9 µM; in the experiment on HCT-15 colon it was above 50 µM; in the experiment on KM12 colon, above 50 µM; in the experiment with NCI-H23 lung, 27.2 µM; in the experiment on NCI-H522 lung, 26.5 µM; in the experiment on SF-539 CNS, 3.53 µM. The TGI in the experiment with SK-OV-3 ovarian was 22.5 µM; in the experiment on SN12C renal, 42.4 µM; in the experiment with SNB-19 CNS, 32.7 µM; in the experiment with SW-620 colon it was above 50 µM.
For the compound `CN(C)CC1CCCCCC(CN(C)C)C1=O` (stereo not given), the GI50 in the experiment on A549 NSCLC was 14.7 µM; in the experiment on HCT-15 colon, 1.24 µM; with KM12 colon, 15.9 µM; in the experiment with NCI-H23 lung it was 8.94 µM; in the experiment on NCI-H522 lung, 0.145 µM; in the experiment with SF-539 CNS, 4.16 µM. For the same compound, the GI50 with SK-OV-3 ovarian is 27.9 µM; with SN12C renal, 7.9 µM; in the experiment with SNB-19 CNS, 41.7 µM; with SW-620 colon, 1.13 µM. For the same compound, the TGI turned out to be 30.7 µM in the experiment with A549 NSCLC; 4.26 µM in the experiment on HCT-15 colon; 37.1 µM in the experiment with KM12 colon; 27 µM with NCI-H23 lung; 0.392 µM with NCI-H522 lung; 15.7 µM in the experiment on SF-539 CNS. The TGI with SK-OV-3 ovarian is above 93.6 µM; with SN12C renal, 22.8 µM; in the experiment on SNB-19 CNS, above 100 µM; in the experiment with SW-620 colon, 2.72 µM.
